{
  "source": "patent US20100273876A1",
  "about": "“ANTIBACTERIAL FORMULATION COMPRISING A DIALKYL SULPHOSUCCINATE AND A CARBANILIDE ANTIBACTERIAL AGENT” (priority 2007, published 2010)",
  "assay_in_all_cases": "Agar dilution MIC assay",
  "assay_type_in_all_cases": "cell-based, Propionibacterium granulosum",
  "key": {"P. granulosum PRP-006": {"tested_on": "P. granulosum PRP-006", "conditions": "P. granulosum PRP-006 (MLS)", "procedure": "(§1) The propionibacteria were cultured and maintained on Wilkins-Chalgren Anaerobe Medium (agar and broth) at pH 6.0; all cultures were incubated anaerobically at 37° C. for 72 hours.\n(§2) This is a standard international method for quantitatively assessing the antimicrobial activity of a compound in a solid medium. The test compound was prepared to 40× the highest concentration required (eg, 10 mg/ml for a final concentration of 250 μg/ml) and a series of doubling dilutions were performed in a suitable solvent. A set amount of these antimicrobial stock solutions was then added to molten agar medium (ca. 55° C.), mixed thoroughly, poured into sterile Petri dishes and allowed to cool/set.\n(§3) A Multipoint™ Inoculator (AQS Manufacturing Ltd, UK) was used to inoculate the plates by spotting the inocula onto the surface of the agar, delivering approximately 1 to 2 μl per spot (yielding 10^5 CFU(colony forming units) per spot).\n(§4) The plate(s) were then incubated under the conditions described above, following which they were examined visually for signs of bacterial growth. The MIC value was ascertained when there was a marked reduction in, or total loss of, growth on the test plate at the lowest concentration as compared to that of the growth on the control plate.\n(§5) The assays were conducted in duplicate and included a positive control (culture medium, diluting solvent and inoculum)."}, "P. granulosum PRP-021": {"tested_on": "P. granulosum PRP-021", "conditions": "P. granulosum PRP-021 (MLS)", "procedure": "as §1, §2, §3, §4, §5"}, "P. granulosum PRP-019": {"tested_on": "P. granulosum PRP-019", "conditions": "P. granulosum PRP-019 (MLSK)", "procedure": "as §1, §2, §3, §4, §5"}, "P. granulosum PRP-044": {"tested_on": "P. granulosum PRP-044", "conditions": "P. granulosum PRP-044 (MLS)", "procedure": "as §1, §2, §3, §4, §5"}, "P. granulosum PRP-055": {"tested_on": "P. granulosum PRP-055", "conditions": "P. granulosum PRP-055 (resistance None)", "procedure": "as §1, §2, §3, §4, §5"}, "P. granulosum PRP-043": {"tested_on": "P. granulosum PRP-043", "conditions": "P. granulosum PRP-043 (MLS)", "procedure": "as §1, §2, §3, §4, §5"}, "P. granulosum NCTC 11865": {"tested_on": "P. granulosum NCTC 11865", "conditions": "P. granulosum NCTC 11865 (resistance None)", "procedure": "as §1, §2, §3, §4, §5"}, "P. granulosum PRP-005": {"tested_on": "P. granulosum PRP-005", "conditions": "P. granulosum PRP-005 (MLSK)", "procedure": "as §1, §2, §3, §4, §5"}},
  "data": [
    {"substance": "dioctyl sodium sulphosuccinate [DOSS]", "values": [
      {"measurement": "MIC", "setting": "P. granulosum PRP-006", "value": 31.25, "unit": "µg/mL"},
      {"measurement": "MIC", "setting": "P. granulosum PRP-021", "value": 31.25, "unit": "µg/mL"},
      {"measurement": "MIC", "setting": "P. granulosum PRP-019", "value": 15.6, "unit": "µg/mL"},
      {"measurement": "MIC", "setting": "P. granulosum PRP-044", "value": 31.25, "unit": "µg/mL"},
      {"measurement": "MIC", "setting": "P. granulosum PRP-055", "value": 31.25, "unit": "µg/mL"},
      {"measurement": "MIC", "setting": "P. granulosum PRP-043", "value": 31.25, "unit": "µg/mL"},
      {"measurement": "MIC", "setting": "P. granulosum NCTC 11865", "value": 31.25, "unit": "µg/mL"},
      {"measurement": "MIC", "setting": "P. granulosum PRP-005", "value": 15.6, "unit": "µg/mL"}
    ]}
  ]
}
